Experimental data: article PMC8400968, “Design, Synthesis, Biological Evaluation, and Computational Studies of Novel Tri-Aryl Imidazole-Benzene Sulfonamide Hybrids as Promising Selective Carbonic Anhydrase IX and XII Inhibitors” (Molecules, 2021)
Values joined by “and” are separate entries in the source; they are usually repeats but may differ in a detail not shown here. Equal values may be shown once. Read-outs that look alike come from different tables or passages of the source.

Experiments:
hCA I = target: T1, hCA I (Homo sapiens, UniProt P00915); assay: stopped-flow CO2 hydrase assay, hCA I; assay type: biochemical
T1 construct: made in house
Procedure: (§1) Newly synthesized hybrids 5a–n were tested for their inhibitory activity against four physiologically and pharmacologically CA isoforms, namely cytosolic hCA I and II, and tumor-associated isoforms hCA IX and XII, using a CO2 hydrase stop-flow assay. Acetazolamide (AAZ), clinically used sulphonamide, was used as the standard drug. […] The ability of imidazoles 5a–n toward inhibition of hCA I, II (cytosolic) as well as hCA IX and XII (transmembrane, tumor-associated isoforms) using stopped-flow CO2 hydrase assay was evaluated. See Appendix A.
(§2) The enzymes are recombinant proteins prepared in our lab. […] The uncatalyzed rates were determined in the same manner and subtracted from the total observed rates. Stock solutions of inhibitor (0.1 mM) were prepared in distilled-deionized water and dilutions up to 0.01 nM were done thereafter with the assay buffer. Inhibitor and enzyme solutions were preincubated together for 15 min at room temperature prior to assay, in order to allow for the formation of the E-I complex. The inhibition constants were obtained by non-linear least-squares methods using PRISM 3 and the Cheng-Prusoff equation, and represent the mean from at least three different determinations.

hCA II = target: T2, hCA II (Homo sapiens, UniProt P00918); assay: stopped-flow CO2 hydrase assay, hCA II; assay type: biochemical
T2 construct: made in house
Procedure: as §1, §2

hCA IX = target: T3, hCA IX (Homo sapiens, UniProt Q16790); assay: stopped-flow CO2 hydrase assay, hCA IX; assay type: biochemical; conditions: for Selectivity Ratio hCA XII/ hCA IX: selectivity for hCA IX over hCA XII; for Ki: stopped-flow CO2 hydrase assay; for IC50: quoted in docking discussion, read-out: IC50 CA-IX (in vitro inhibitory activity quoted in docking study)
T3 construct: made in house
Procedure: as §1, §2

hCA XII = target: T4, hCA XII (Homo sapiens, UniProt O43570); assay: stopped-flow CO2 hydrase assay, hCA XII; assay type: biochemical
T4 construct: made in house
Procedure: Newly synthesized hybrids 5a–n were tested for their inhibitory activity against four physiologically and pharmacologically CA isoforms, namely cytosolic hCA I and II, and tumor-associated isoforms hCA IX and XII, using a CO2 hydrase stop-flow assay. Acetazolamide (AAZ), clinically used sulphonamide, was used as the standard drug. […]. The ortho substitution in the aryl moiety appears to correlate with higher inhibitory effects against both hCA IX and XII. […] […]. The ability of imidazoles 5a–n toward inhibition of hCA I, II (cytosolic) as well as hCA IX and XII (transmembrane, tumor-associated isoforms) using stopped-flow CO2 hydrase assay was evaluated. See Appendix A.
The carbonic anhydrase catalyzed CO2 hydration actions for all new compounds herein reported have were assayed utilizing an instrument of Applied Photophysics stopped-flow. The enzymes are recombinant proteins prepared in our lab. […]. The uncatalyzed rates were determined in the same manner and subtracted from the total observed rates. Stock solutions of inhibitor (0.1 mM) were prepared in distilled-deionized water and dilutions up to 0.01 nM were done thereafter with the assay buffer. Inhibitor and enzyme solutions were preincubated together for 15 min at room temperature prior to assay, in order to allow for the formation of the E-I complex. The inhibition constants were obtained by non-linear least-squares methods using PRISM 3 and the Cheng-Prusoff equation, and represent the mean from at least three different determinations.

[1] = Cell viability assay (MTT); assay type: cell-based; conditions: human, MCF-10A mammary gland epithelial cells, MCF-10A cells, incubated 4 days
Procedure: Cell viability assay was carried out using human mammary gland epithelial cell line (MCF-10A). MCF-10A cells were incubated with compounds 5b, 5d, 5e, 5g, 5j and 5n for 4 days and MTT assay was used to determine the viability of cells. See Appendix A.
MTT assay was carried out to study the effect of compounds on mammary epithelial cells (MCF-10A). The medium in which cells were propagated contained Dulbecco’s modified Eagle’s medium (DMEM)/Ham’s F-12 medium (1:1) supplemented with epidermal growth factor (20 ng/mL), hydrocortisone (500 ng/mL), insulin (10 μg/mL), 2 mM glutamine and 10% fetal calf serum. After every 2–3 days, the cells were passaged using trypsin ethylenediamine tetra acetic acid (EDTA). The cells were seeded at a density of 10^4 cells mL^−1 in flat-bottomed culture plates containing 96 wells each. After 24 h, medium was removed from the plates and the compounds in (in 0.1% DMSO) were added (in 200 μL medium to yield a final concentration of 0.1% v/v) to the wells of plates. A single compound was designated with four wells followed by incubation of plates for 96 h at 37 °C. After incubation, medium was removed completely from the plates followed by addition of MTT (0.4 mg/mL in medium) to each well and subsequent incubation of plates for 3 h. MTT (along with the medium) was removed and DMSO (150 μL) was added to each well of the culture plates, followed by vortexing and subsequent measurement of absorbance (at 540 nm) using microplate reader. The data are shown as percentage inhibition of proliferation in comparison with controls containing 0.1% DMSO.

[2] = tested on: epithelial cancer cell line (A-549); assay: Antiproliferative activity, MTT assay, A-549; assay type: cell-based; conditions: Homo sapiens, A549; A-549, MTT; read-out: Antiproliferative Activity IC50 ± SEM A-549
Procedure: (§3) The antiproliferative activity of 5b, 5d, 5e, 5g, 5j and 5n against four human cancer cell lines including pancreatic cancer cell line (Panc-1), breast cancer cell line (MCF-7), colon cancer cell line (HT-29) and epithelial cancer cell line (A-549) using MTT assay and doxorubicin was applied as the reference compound [22, 23]. Graph Pad Prism software (Graph Pad Software, San Diego, CA, USA) was used to calculate the median inhibition concentration (IC50) and results are recorded in Table 2.
(§4) The antiproliferative activity of 5b, 5d, 5e, 5g, 5j and 5n against four human cancer cell lines including pancreatic cancer cell line (Panc-1), breast cancer cell line (MCF-7), colon cancer cell line (HT-29) and epithelial cancer cell line (A-549) using MTT assay and doxorubicin was applied as the reference compound [22, 23]. See Appendix A.
(§5) To explore the antiproliferative potential of compounds MTT assay was performed according to previously reported procedure using different cell lines To explore the antiproliferative potential of compounds propidium iodide fluorescence assay was performed using different cell lines. To calculate the total nuclear DNA, a fluorescent dye (propidium iodide, PI) is used which can attach to the DNA, thus offering a quick and precise technique. PI cannot pass through the cell membrane and its signal intensity can be considered as directly proportional to quantity of cellular DNA. Cells whose cell membranes are damaged or have changed permeability are counted as dead ones. The assay was performed by seeding the cells of different cell lines at a density of 3000–7500 cells/well (in 200 µL medium) in culture plates followed by incubation for 24 h at 37 °C in humidified 5% CO2/95% air atmospheric conditions. The medium was removed; the compounds were added to the plates at 10 µM concentrations (in 0.1% DMSO) in triplicates, followed by incubation for 48 h. DMSO (0.1%) was used as control. After incubation, medium was removed followed by the addition of PI (25 µL, 50µg/mL in water/medium) to each well of the plates. At −80 °C, the plates were allowed to freeze for 24 h, followed by thawing at 25 °C. A fluorometer (Polar-Star BMG Tech, Offenburg, Germany) was used to record the readings at excitation and emission wavelengths of 530 and 620 nm for each well. The percentage cytotoxicity of compounds was calculated using the following formula: %Cytotoxicity=(Ac−Atc)/Ac×100 where Atc = Absorbance of treated cells and Ac = Absorbance of control. Erlotinib was used as positive control in the assay.

[3] = tested on: breast cancer cell line (MCF-7); assay: Antiproliferative activity, MTT assay, MCF-7; assay type: cell-based; conditions: Homo sapiens, MCF7; MCF-7, MTT; read-out: Antiproliferative Activity IC50 ± SEM MCF-7
Procedure: as §3, §4, §5

[4] = tested on: pancreatic cancer cell line (Panc-1); assay: Antiproliferative activity, MTT assay, Panc-1; assay type: cell-based; conditions: Homo sapiens; Panc-1, MTT; read-out: Antiproliferative Activity IC50 ± SEM Panc-1
Procedure: as §3, §4, §5

[5] = tested on: colon cancer cell line (HT-29); assay: Antiproliferative activity, MTT assay, HT-29; assay type: cell-based; conditions: Homo sapiens; HT-29, MTT; read-out: Antiproliferative Activity IC50 ± SEM HT-29
Procedure: as §3, §4, §5

[6] = tested on: four human cancer cell lines (Panc-1, MCF-7, HT-29, A-549); assay: Antiproliferative activity, MTT assay, average of the four cell lines; assay type: cell-based; conditions: for IC50: average of A-549, MCF-7, Panc-1, HT-29
Procedure: as §3, §4, §5

[7] = stopped-flow CO2 hydrase assay, read-out: Ki hCA I
[8] = four cancer cell lines, read-out: GI50

T4 sequence (O43570 25-354): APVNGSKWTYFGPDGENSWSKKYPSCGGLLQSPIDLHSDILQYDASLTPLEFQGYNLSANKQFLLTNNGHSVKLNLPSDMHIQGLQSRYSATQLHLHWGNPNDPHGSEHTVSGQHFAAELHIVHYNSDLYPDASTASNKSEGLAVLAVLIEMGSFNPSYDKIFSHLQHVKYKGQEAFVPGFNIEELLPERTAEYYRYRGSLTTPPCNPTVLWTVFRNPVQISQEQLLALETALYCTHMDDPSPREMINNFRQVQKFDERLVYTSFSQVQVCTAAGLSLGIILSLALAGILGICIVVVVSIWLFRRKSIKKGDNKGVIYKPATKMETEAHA
T1 sequence (P00915 whole entry): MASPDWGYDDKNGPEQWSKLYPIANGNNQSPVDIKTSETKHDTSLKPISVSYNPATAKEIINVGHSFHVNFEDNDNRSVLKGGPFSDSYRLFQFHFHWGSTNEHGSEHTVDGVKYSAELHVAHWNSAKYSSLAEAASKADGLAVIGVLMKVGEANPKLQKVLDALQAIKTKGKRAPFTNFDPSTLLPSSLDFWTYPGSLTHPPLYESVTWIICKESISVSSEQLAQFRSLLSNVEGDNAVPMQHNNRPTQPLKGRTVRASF

Structure (SMILES) | Ki (hCA I) | Ki (hCA II) | Selectivity Ratio hCA XII/ hCA IX (hCA IX) | Ki (hCA IX) | Ki (hCA XII) | viability at 96 h [1] | IC50 [2] | IC50 [3] | IC50 [4] | IC50 [5] | IC50 [6] | melting point | IC50 (hCA IX) | GI50 ([6]; mean of four cell lines, read-out: mean GI50 against the four cell lines) | Ki (hCA I; [7]) | GI50 [6, 8]
NS(=O)(=O)c1ccc(-n2c(-c3ccccc3[N+](=O)[O-])nc(-c3ccccc3)c2-c2ccccc2)cc1 [Compound 5j, 4-(2-(2-Nitrophenyl)-4,5-diphenyl-1H-imidazol-1-yl)benzene sulfonamide] | > 100 µM | > 100 µM | 5.60 | 1.1 µM | 6.2 µM | 88% | 4.6 ± 0.6 µM | 3.6 ± 0.2 µM | 4.6 ± 0.9 µM | 4.8 ± 0.4 µM | 4.4 µM | 280 to 282 °C | – | – | – | –
NS(=O)(=O)c1ccc(-n2c(-c3c(Cl)cccc3Cl)nc(-c3ccccc3)c2-c2ccccc2)cc1 [Compound 5d, 4-(2-(2,6-Dichlorophenyl)-4,5-diphenyl-1H-imidazol-1-yl)benzene sulfonamide] | > 100 µM | > 100 µM | 7.00 | 0.72 µM and 0.7 µM | 4.9 µM | 87% | 3.1 ± 0.6 µM | 3.9 ± 0.4 µM | 3.8 ± 0.3 µM | 3.1 ± 0.4 µM | 3.5 µM | 214 to 216 °C | 0.72 µM | 3.5 µM | – | –
NS(=O)(=O)c1ccc(-n2c(-c3cccs3)nc(-c3ccccc3)c2-c2ccccc2)cc1 [Compound 5n, 4-(4,5-Diphenyl-2-(thiophen-2-yl)-1H-imidazol-1-yl)benzene sulfonamide] | > 100 µM | > 100 µM | 5.00 | 1.3 µM | 6.4 µM | 90% | 4.7 ± 0.6 µM | 4.6 ± 0.6 µM | 4.8 ± 0.3 µM | 4.8 ± 0.2 µM | 4.7 µM | 290 to 292 °C | – | – | – | –
COc1ccccc1-c1nc(-c2ccccc2)c(-c2ccccc2)n1-c1ccc(S(N)(=O)=O)cc1 [Compound 5g, 4-(2-(2-Methoxyphenyl)-4,5-diphenyl-1H-imidazol-1-yl)benzene sulfonamide] | – | > 100 µM | 12.00 | 0.32 µM and 0.3 µM | 3.7 µM | 90% | 2.4 ± 0.5 µM | 2.1 ± 0.2 µM | 2.2 ± 0.4 µM | 2.4 ± 0.4 µM | 2.3 µM | – | 0.32 µM | – | > 100 µM | 2.3 µM
NS(=O)(=O)c1ccc(-n2c(-c3ccccc3Br)nc(-c3ccccc3)c2-c2ccccc2)cc1 [Compound 5b, 4-(2-(2-Bromophenyl)-4,5-diphenyl-1H-imidazol-1-yl)benzene sulfonamide] | – | > 100 µM | 11.50 | 0.36 µM and 0.4 µM | 4.6 µM | 91% | 2.8 ± 0.5 µM | 2.7 ± 0.4 µM | 2.5 ± 0.2 µM | 3.1 ± 0.1 µM | 2.8 µM | – | 0.36 µM | – | > 100 µM | 2.8 µM
NS(=O)(=O)c1ccc(-n2c(-c3ccccc3O)nc(-c3ccccc3)c2-c2ccccc2)cc1 [Compound 5e, 4-(2-(2-Hydroxyphenyl)-4,5-diphenyl-1H-imidazol-1-yl)benzene sulfonamide] | > 100 µM | > 100 µM | 6.50 | 0.84 µM and 0.8 µM | 5.2 µM | 86% | 4.4 ± 0.7 µM | 3.6 ± 0.8 µM | 3.7 ± 0.5 µM | 3.9 ± 0.6 µM | 3.9 µM | – | – | – | – | –
